Experimental findings from patent US20240358818A1, “ANTIBODY-INDUCING POLYPEPTIDE AND VACCINE” (priority 2021, published 2024) are described below.

The target in experiment [1] is T478K mutant RBD epitope antigen (Severe acute respiratory syndrome coronavirus 2, UniProt P0DTC2, T478K).
In experiment [2] the target is L452R mutant RBD epitope antigen (Severe acute respiratory syndrome coronavirus 2, UniProt P0DTC2, L452R).

For SNLKPFERDISTEIYQAGSTPC [#11], in experiment [1], the “reactivity of mouse serum to the mutant RBD” value was “sufficiently high reactivity” and the “reactivity to the mutant RBD compared with reactivity to the wild-type RBD” value is listed as “a little lower”.
Turning to GGNYNYLYRLFRKSNLKPFERD [#10], the “reactivity to a homologous epitope of the mutant RBD compared with the wild-type RBD” value in experiment [2] was “substantially equivalent”.
